# Source: patent US9814704B2, “Substituted pyrrolo[2,3-b]pyridines as MLK inhibitors” (The University of Rochester, priority 2008, dated 2017)
# Where two headings read alike, the source gives them in different places.
# Legend:
# [1] = Pharmacokinetic Evaluation in Mice; assay type: in vivo; design: unit not given here; conditions: single intravenous (IV) injection at 10 mg/kg, CL57 BL/6 mice, brain homogenate
# Protocol: Pharmacokinetic Evaluation in Mice
# Several compounds disclosed herein were evaluated in a standard murine pharmacokinetic model.
# Compounds were dissolved in either 5% DMSO, 40% PEG400, and 55% saline (pH=8) or […], 40% PEG400, and 55% (20% HP-β-CD in deionized water; pH=8) to yield a nominal concentration of 2 mg/mL for intravenous administration. Compounds were administered via a single intravenous (IV) injection in CL57 BL/6 mice at 10 mg/kg in DMSO/PEG400 solution. Three mice in each group were used for blood and brain collection at each time point. Blood samples (300 μL) were collected via the retro-orbital vein predose and at 5 min, 0.25, 0.50, 1, 2, 4, 6, 8, and 24 hours postdose. Blood samples were placed into tubes containing sodium heparin and centrifuged under refrigerated conditions at 8000 rpm for 6 minutes to separate plasma from the samples. The brain of each animal was collected after the final blood collection. The whole tissue was harvested, excised and rinsed by saline, dried by filter paper, and then placed into one tube per tissue per animal. All samples were stored at −20° C. until bioanalysis.
# Compound concentrations in plasma and brain homogenate were determined using a high performance liquid chromatography/mass spectrometry (HPLC/MS/MS) method (Agilent 1100 series HPLC, AB Inc. API4000 triple-quadrupole with an ESI interface and Analyst 1.4 software).
# Results in the form of area under the time-versus-concentration curve (AUC) are given below in Table 5.
# MLK3 = MLK3 (Homo sapiens (Human), UniProt Q16584); experiment: Radiometric Filter Plate MLK3 Assay; assay type: biochemical; conditions: read-out: MK3 IC50
# MLK3, sequence (Q16584 whole entry): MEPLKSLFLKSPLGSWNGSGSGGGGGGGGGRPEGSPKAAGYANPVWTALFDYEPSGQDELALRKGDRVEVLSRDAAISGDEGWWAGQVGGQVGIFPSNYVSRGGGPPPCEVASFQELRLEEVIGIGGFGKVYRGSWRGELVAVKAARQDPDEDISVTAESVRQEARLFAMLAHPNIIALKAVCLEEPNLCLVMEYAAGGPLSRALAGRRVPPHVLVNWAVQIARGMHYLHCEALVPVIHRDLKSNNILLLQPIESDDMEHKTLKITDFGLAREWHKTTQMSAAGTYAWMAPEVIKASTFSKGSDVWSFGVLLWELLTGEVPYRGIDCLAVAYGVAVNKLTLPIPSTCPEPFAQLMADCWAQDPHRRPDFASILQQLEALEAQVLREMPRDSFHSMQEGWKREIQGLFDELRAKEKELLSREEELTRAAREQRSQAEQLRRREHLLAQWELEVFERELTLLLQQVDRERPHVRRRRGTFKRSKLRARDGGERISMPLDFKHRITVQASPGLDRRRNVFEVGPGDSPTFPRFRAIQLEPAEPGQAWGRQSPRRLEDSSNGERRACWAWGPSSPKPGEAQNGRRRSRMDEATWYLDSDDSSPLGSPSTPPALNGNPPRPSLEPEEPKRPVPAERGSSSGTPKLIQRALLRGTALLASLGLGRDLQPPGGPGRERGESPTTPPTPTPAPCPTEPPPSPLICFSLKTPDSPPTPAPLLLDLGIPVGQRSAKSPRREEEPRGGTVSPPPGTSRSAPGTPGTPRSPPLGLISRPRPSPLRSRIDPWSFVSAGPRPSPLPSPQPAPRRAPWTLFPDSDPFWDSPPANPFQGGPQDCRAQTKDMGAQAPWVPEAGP
# Protocol: Radiometric Filter Plate MLK3 Assay
# After a twenty minute incubation, the reactions were washed through filter plates and read on a scintillation counter. Results are shown in Table 4 below, in which +++ indicates ≦0.1 μM, ++ indicates >0.1 μM and ≦1 μM, and + indicates >1 μM.
# [2] = 200 ng (130 nM) MLK3, 1 μM inactive MKK7b, 2 μM cold ATP (Km), 33P ATP, twenty minute incubation
SMILES,AUC Brain [1],IC50 (MLK3) [nM],IC50 (MLK3; [2]) [nM]
"COc1cc(-c2cnc3[nH]cc(-c4ccc(N)nc4)c3c2)cc(OC)c1OC [Example 18, 5-(5-(3,4,5-trimethoxyphenyl)-1H-pyrrolo[2,3-b]pyridin-3-yl)pyridin-2-amine]",− (− indicates <500),–,< 100
"CN1CCN(Cc2ccc(-c3cnc4[nH]cc(-c5ccc6[nH]ccc6c5)c4c3)cc2)CC1 [Example 32, 3-(1H-indol-5-yl)-5-(4-((4-methylpiperazin-1-yl)methyl)phenyl)-1H-pyrrolo[2,3-b]pyridine]",+ (+ indicates ≧500),< 100,–
"Cn1ccc2cc(-n3c(=O)[nH]c4ncc(-c5ccc(O)cc5)nc43)ccc21 [Example 42, 6-(4-hydroxyphenyl)-1-(1-methyl-1H-indol-5-yl)-1H-imidazo[4,5-b]pyrazin-2(3H)-one]",–,–,> 1000
"COc1cc(-c2cnc3[nH]c(=O)n(-c4ccc5[nH]c(C)cc5c4)c3n2)cc(OC)c1OC [Example 72, 1-(2-methyl-1H-indol-5-yl)-6-(3,4,5-trimethoxyphenyl)-1H-imidazo[4,5-b]pyrazin-2(3H)-one]",–,–,< 100
"COc1ccc(-c2cnc3[nH]c(=O)n(-c4ccc5[nH]ncc5c4)c3n2)cc1OC [Example 87, 6-(3,4-dimethoxyphenyl)-1-(1H-indazol-5-yl)-1H-imidazo[4,5-b]pyrazin-2(3H)-one]",–,–,> 1000
"COc1cc(-c2cnc3[nH]c(=O)n(CC4CC4)c3n2)cc(OC)c1OC [Example 78, 1-(cyclopropylmethyl)-6-(3,4,5-trimethoxyphenyl)-1H-imidazo[4,5-b]pyrazin-2(3H)-one]",–,100 to 1000,–
"COc1cc(-c2cnc3[nH]c(=S)n(CC4CC4)c3n2)cc(OC)c1OC [Example 127, 1-(cyclopropylmethyl)-6-(3,4,5-trimethoxyphenyl)-1H-imidazo[4,5-b]pyrazine-2(3H)-thione]",–,–,> 1000

# Further lines, results first:
AUC Brain [1],IC50 (MLK3) [nM],IC50 (MLK3; [2]) [nM],SMILES
+ (+ indicates ≧500),100 to 1000,–,"COc1cc(-c2cnc3[nH]cc(-c4ccc5[nH]ccc5c4)c3c2)cc(OC)c1OC [Example 1, 3-(1H-indol-5-yl)-5-(3,4,5-trimethoxyphenyl)-1H-pyrrolo[2,3-b]pyridine]"
− (− indicates <500),–,< 100,"Nc1ccc(-c2cnc3[nH]cc(-c4ccc5[nH]ccc5c4)c3c2)cn1 [Example 4, 5-(3-(1H-indol-5-yl)-1H-pyrrolo[2,3-b]pyridin-5-yl)pyridin-2-amine]"
− (− indicates <500),–,< 100,"COc1cc(-c2cnc3[nH]cc(-c4cnc(N)nc4)c3c2)cc(OC)c1OC [Example 17, 5-(5-(3,4,5-trimethoxyphenyl)-1H-pyrrolo[2,3-b]pyridin-3-yl)pyrimidin-2-amine]"
+ (+ indicates ≧500),–,< 100,"Nc1ncc(-c2cnc3[nH]cc(-c4ccc5[nH]ccc5c4)c3c2)cn1 [Example 9, 5-(3-(1H-indol-5-yl)-1H-pyrrolo[2,3-b]pyridin-5-yl)pyrimidin-2-amine]"
–,100 to 1000,–,"COc1cc(-c2cnc3[nH]c(=O)n(-c4ccc5cn[nH]c5c4)c3n2)cc(OC)c1OC [Example 90, 1-(1H-indazol-6-yl)-6-(3,4,5-trimethoxyphenyl)-1H-imidazo[4,5-b]pyrazin-2(3H)-one]"
–,100 to 1000,–,"Nc1ccc(-c2c[nH]c3ncc(-c4ccc(N)nc4)cc23)cc1 [Example 23, 5-(3-(4-aminophenyl)-1H-pyrrolo[2,3-b]pyridin-5-yl)pyridin-2-amine]"
–,–,< 100,"COc1cc(-c2cnc3[nH]c(=O)n(-c4ccc5[nH]ccc5c4)c3n2)cc(OC)c1O [Example 62, 6-(4-hydroxy-3,5-dimethoxyphenyl)-1-(1H-indol-5-yl)-1H-imidazo[4,5-b]pyrazin-2(3H)-one]"
–,–,< 100,"CC(C)(C)OC(=O)N1CCN(C(=O)c2ccc(-c3cnc4[nH]cc(-c5ccc(C(N)=O)cc5)c4c3)cc2)CC1 [Example 148, 4-{4-[3-(4-carbamoyl-phenyl)-1H-pyrrolo[2,3-b]pyridin-5-yl]-benzoyl}-piperazine-1-carboxylic acid tert-butyl ester]"
–,–,< 100,"COc1cc(-c2cnc3[nH]c(=O)n(-c4ccc5cc[nH]c5c4)c3n2)cc(OC)c1OC [Example 113, 1-(1H-indol-6-yl)-6-(3,4,5-trimethoxyphenyl)-1H-imidazo[4,5-b]pyrazin-2(3H)-one]"
–,–,< 100,"CN1CCN(Cc2ccc(-c3cnc4[nH]cc(-c5ccc(C(N)=O)cc5)c4c3)cc2)CC1=O [Example 158, 4-{5-[4-(4-methyl-3-oxo-piperazin-1-ylmethyl)-phenyl]-1H-pyrrolo[2,3-b]pyridin-3-yl}-benzamide]"
–,–,> 1000,"COc1ccc(-n2c(=O)[nH]c3ncc(-c4ccc(OC)c(OC)c4)nc32)cc1 [Example 69, 6-(3,4-dimethoxyphenyl)-1-(4-methoxyphenyl)-1H-imidazo[4,5-b]pyrazin-2(3H)-one]"
